Data on three molecules can be found in PMC6627486, “Ipomoeassin F Binds Sec61α to Inhibit Protein Translocation” (Journal of the American Chemical Society, 2019).

Where two headings read alike, the source gives them in different places.

One data set concerns Sec61α. In words: Competition with CT7 photo-affinity labeling of Sec61α in sheep rough microsomes. The data set is classed as binding. As to conditions: 10 μM compound, 100 nM CT7, sheep rough microsomes. The method, then: MDA-MB-231 cells were seeded on fibronectin-coated coverslips at 70% confluency in a 48-well plate and cultured at 37 °C and 5% CO2. After 24 h, culture medium was replaced with fresh medium containing a 20 µM competitor or an equal volume of DMSO vehicle for 30 min at 37 °C and 5% CO2, followed by addition of 0.2 µM (final concentration) fluorescent probe 12. After 1 h incubation at 37 °C and 5% CO2, the coverslips were mounted onto a glass slide with a mounting medium with or without 0.5 µg/ml DAPI.
The fluorescent images were acquired with a confocal microscope (Leica TCS SP5) using 405 nm excitation and 562 nm excitation. For the ER co-localization studies, 1 uM ER-Tracker™ Blue-White DPX was added to the medium after 1 h incubation with probe 12. After 5 min incubation, the coverslips were mounted onto a glass slide and the images were acquired as described above.
CT7 photo-affinity labeling and click chemistry were done as previously described.14 Briefly, SRMs (sheep rough microsomes, isolated as described in reference15) containing 100 nM Sec61 were treated with 10 µM ipomoeassin F/mycolactone or 1% DMSO for 30 min at 0°C, followed by incubation with 100 nM CT7 for 10 min RT. Samples were then photolyzed for 10 min and crosslinked proteins were detected by click chemistry, SDS-PAGE, and in-gel fluorescent scanning (Typhoon Trio, GE Healthcare). […]

Data set [1] has as its system IL-2 production by Jurkat T cells. Put plainly: Activation-induced IL-2 production by Jurkat T cells. Type of data set: cell-based, human. To be noted: 1 h preincubation then 24 h activation. As to the method: Jurkat E6.1 (ATCC TIB-152TM) T cells were cultured in RPMI GlutamaxTM (Life Technologies),
supplemented with 10% heat-inactivated fetal calf serum (FCS) (Invitrogen) and penicillin/streptomycin
(100 U/ml, 100 µg/ml). […]
FlowJo X software. […]

Another data set deals with MDA-MB-231. Put plainly: AlamarBlue cytotoxicity assay, MDA-MB-231. The data set is classed as cell-based, human. As to conditions: Homo sapiens, MDA-MB-231, 72 h, read-out: Cytotoxicity (IC50). As to the method:
(§1) AlamarBlue Cytotoxicity Assay
(§2) MDA-MB-231, MCF-10A and HCT116. Viable cells were counted with a hemocytometer immediately before each experiment . Experiments were done in triplicate. First, 100 μL of MDA-MB-231 cells or MCF-10A cells at the density of 50,000 cells/mL was seeded in a 96-well plate (5,000 cells/well) and then incubated at 37 °C and 5% CO2 for 24 h. The compounds were dissolved in DMSO (dimethyl sulfoxide) to make drug stocks (10 mM). The stock solutions were diluted with the complete DMEM high glucose culture medium to make a series of gradient fresh working solutions right before each test. Subsequently, the cells were treated with 100 μL of the freshly made gradient working solution in a total volume of 200 μL/well for 72 h. After that, the media were discarded and 200 μL of the fresh complete medium containing 10% of AlamarBlue (resazurin) stock solution was added to each well. The plate was then incubated at 37 °C and 5% CO2 for another 3 h. Emission of each well at 620 nm was detected by a microplate reader (BioTek Synergy H1) at excitation 580 nm. […]
(§3) Microplate Reader. The percentage of viability compared to the negative control (DMSO-treated cells) […]
(§4) was determined. […]
For orientation: Resazurin is reduced to fluorescent resorufin, in cell work by metabolically active cells.

For a further data set, the system named is MCF7. In words: MTT cytotoxicity assay, MCF7. The data set is classed as cell-based, human. To be noted: Homo sapiens, MCF7, 72 h, read-out: Cytotoxicity (IC50). The method, then:
Two human breast cancer cell lines (MDA-MB-231 and MCF7) and one human breast non-tumorigenic epithelial cell line (MCF-10A) were maintained in a DMEM high glucose culture medium supplemented with 10% fetal bovine serum (FBS) and 2 mM L-glutamine. The cells were grown in a humidified atmosphere of 5% CO2 and 95% air at 37 °C . The culture medi um w as changed every 2–4 days depending on cell density. Cell cultures were passaged once a week using 0.125% trypsin-EDTA to detach the cells from culture flasks/dishes.
The human colorectal cancer cell line HCT116 was maintained in McCoy’s 5A (modified) medium supplemented with 10% fetal bovine serum (FBS). The human embryonic kidney (HEK293T and HEK293 FRT TRex) cell line was maintained in DMEM high glucose culture medium supplemented with 10% fetal bovine serum (FBS).
HepG2 cells were cultured in DMEM supplemented with 10% fetal bovine serum and 2 mM L-glutamine at 37°C under 5% CO2.
Viable cells were counted with a hemocytometer immediately before each experiment. Experiments were done in triplicate. First, 100 μL of MCF7 cells at the density of 50,000 cells/mL were seeded in a 96-well plate (5,000 cells/well), which was incubated at 37 °C and 5% CO2 atmosphere for 24 h. The compounds were dissolved in DMSO (dimethyl sulfoxide) to make drug stocks (10 mM). The stock solutions were diluted with the complete DMEM high glucose culture medium to make a series of gradient fresh working solutions right before each test. Subsequently, the cells were treated with 100 μL of the freshly made gradient working solution in a total volume of 200 μL/well for 72 h. After that, the media were discarded and 200 μL of the fresh complete medium containing 10% of MTT stock solution (5 mg/mL) was added to each well. The plate was then incubated at 37 °C and 5% CO2 for 3 h. Next, 180 μL of the medium was discarded from each well , and 180 μL of DMSO was added to each well to dissol ve formazan crystals. Absorbance of formazan was detected by a microplate reader (BioTek Synergy H1) at 570 nm with 650 nm as the reference wavelength. The percentage of viability compared to the negative control (DMSO-treated cells) was determined . GraphPad Prism 6 software was used to make a plot of %
Background: Tetrazolium assays rely on reduction of a dye to a coloured formazan, in cell work by metabolically active cells.

A short description of data set [2]: AlamarBlue cytotoxicity assay, MCF-10A. The data set is classed as cell-based, human. To be noted: human. The method, then:
as §1, §2, §3, §4

Usually IC50 stands for the concentration at which inhibition is half-maximal.

As to `CC(=C\C=C\C(C)=C\[C@H](O)[C@@H](O)C[C@H](C)O)/C=C(C)/C=C/C(=O)O[C@H]1CCCC(=O)O[C@@H]([C@@H](C)C/C(C)=C/[C@@H](C)[C@H](O)C[C@@H](C)O)C/C=C(\C)C[C@@H]1C` [mycolactone, reference compound], the “competition with CT7 photo-cross-linking to Sec61α” value in the data set with Sec61α is “efficiently competes with CT7”. This molecule came in with an IC50 in data set [1] of 6 nM.
With `C/C=C(\C)C(=O)O[C@@H]1[C@@H](O)[C@@H]2O[C@H]3[C@H](O[C@@H](CCCCC)CCCCCCC(=O)CCC(=O)OC[C@@H](O2)[C@H]1OC(=O)/C=C/c1ccccc1)O[C@H](C)[C@H](OC(C)=O)[C@@H]3O` [ipomoeassin F], the IC50 is 6.3 nM in the data set on MDA-MB-231, 36.4 nM with MCF7 and 9.9 nM in data set [1] (Homo sapiens). Further, the IC50 at 72 h in data set [2] was determined as 5.3 nM. In addition, in the data set on Sec61α, the “competition with CT7 photo-cross-linking to Sec61α” value is recorded as “similarly potent competition”.
On to `C/C=C(\C)C(=O)O[C@H]1[C@H](OC(=O)/C=C/c2ccc(OCc3cn(CCOCCOCCOCCNC(=O)CCCC[C@@H]4SC[C@@H]5NC(=O)N[C@@H]54)nn3)cc2)[C@@H](O)[C@@H]2O[C@H]3[C@H](O[C@@H](CCCCC)CCCCCCC(=O)CCC(=O)OC[C@H]1O2)O[C@H](C)[C@H](OC(C)=O)[C@@H]3O` [compound 5], for which the IC50 is 29.5 nM with MDA-MB-231 (AlamarBlue), 187 nM in the data set on MCF7 (MTT) and 21.7 nM in data set [2] (72 h).
